Source: patent US5482941A, “Quinazolinone antianginal agents” (Pfizer Inc., priority 1991, dated 1996)

Key:
rabbit = experiment: Safety profile, acute toxicity in rabbit; format: in vivo
[1] = molecular target: T1, calcium/calmodulin (Ca/CAM)-independent cGMP PDE (Oryctolagus cuniculus, UniProt G1SX67); experiment: In vitro inhibition of Ca/CAM-independent cGMP PDE; format: biochemical, rabbit; conditions: Ca/CAM-independent cGMP PDE from rabbit platelets, in vitro
T1 construct: The PDE enzymes are isolated from rabbit platelets and rat kidney; from tissue; host or cells: rabbit platelets
Protocol: (§1) Phosphodiesterase activity
(§2) Compound affinities for cGMP and cAMP PDEs are assessed by determination of their IC50 values (the concentration of inhibitor required for 50% inhibition of enzyme activity). The PDE enzymes are isolated from rabbit platelets and rat kidney, essentially by the method of W. J. Thompson et al. (Biochem., 1971, 10, 311). The calcium/calmodulin (Ca/CAM)-independentcGMP PDE and the cGMP-inhibited cAMP PDE enzymes are obtained from rabbit platelets whilst, of the four major PDE enzymes of the rat kidney, the Ca/CAM-dependent cGMP PDE (fraction I) is isolated. Assays are performed using a modification of the "batch" method of W. J. Thompson and M. M. Appleman (Biochem., 1979, 18, 5228).

[2] = test system: calcium/calmodulin (Ca/CAM)-independent cGMP PDE; experiment: In vitro inhibition of Ca/CAM-independent cGMP PDE; format: biochemical, rabbit; conditions: between Ca/CAM-independent cGMP PDE and cGMP-inhibited cAMP PDE (IC50 cAMP / IC50 cGMP)
Protocol: as §1, §2

cGMP-inhibited cAMP PDE = molecular target: T2, cGMP-inhibited cAMP PDE (Oryctolagus cuniculus, UniProt G1ST54); experiment: In vitro inhibition of cGMP-inhibited cAMP PDE; format: biochemical; conditions: cGMP-inhibited cAMP PDE from rabbit platelets
T2 construct: The PDE enzymes are isolated from rabbit platelets and rat kidney; from tissue; host or cells: rabbit platelets
T2 sequence (G1ST54 1-1128): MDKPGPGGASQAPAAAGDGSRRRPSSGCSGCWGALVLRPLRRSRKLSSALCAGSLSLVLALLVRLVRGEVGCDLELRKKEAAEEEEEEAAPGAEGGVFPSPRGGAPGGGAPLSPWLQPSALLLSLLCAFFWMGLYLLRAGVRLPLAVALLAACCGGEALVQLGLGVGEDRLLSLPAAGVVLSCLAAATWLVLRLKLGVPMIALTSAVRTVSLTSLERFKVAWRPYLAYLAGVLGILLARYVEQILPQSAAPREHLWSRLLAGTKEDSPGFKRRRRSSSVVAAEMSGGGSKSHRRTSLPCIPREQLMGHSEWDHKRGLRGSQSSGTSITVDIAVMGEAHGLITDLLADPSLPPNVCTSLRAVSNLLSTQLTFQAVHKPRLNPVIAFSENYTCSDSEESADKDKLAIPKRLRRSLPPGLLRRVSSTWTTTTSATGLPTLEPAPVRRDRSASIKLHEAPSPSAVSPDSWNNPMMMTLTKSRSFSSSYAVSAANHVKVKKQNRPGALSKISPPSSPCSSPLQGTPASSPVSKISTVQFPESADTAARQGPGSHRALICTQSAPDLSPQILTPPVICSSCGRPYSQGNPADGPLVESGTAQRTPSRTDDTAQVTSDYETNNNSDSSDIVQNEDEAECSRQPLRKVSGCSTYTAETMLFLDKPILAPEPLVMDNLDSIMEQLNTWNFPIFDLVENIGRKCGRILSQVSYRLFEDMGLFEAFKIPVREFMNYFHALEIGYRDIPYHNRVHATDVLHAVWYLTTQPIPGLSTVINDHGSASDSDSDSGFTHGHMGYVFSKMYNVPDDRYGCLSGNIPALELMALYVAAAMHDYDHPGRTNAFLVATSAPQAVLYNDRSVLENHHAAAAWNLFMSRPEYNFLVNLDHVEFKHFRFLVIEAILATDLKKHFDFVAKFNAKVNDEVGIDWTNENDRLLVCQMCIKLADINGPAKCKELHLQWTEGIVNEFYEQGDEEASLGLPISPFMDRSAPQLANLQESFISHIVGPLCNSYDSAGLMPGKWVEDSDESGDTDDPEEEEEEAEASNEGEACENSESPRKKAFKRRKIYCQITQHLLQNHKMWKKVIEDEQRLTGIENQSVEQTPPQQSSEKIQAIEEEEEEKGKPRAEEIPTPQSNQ
Protocol: as §1, §2

Compound	signs of adverse acute toxicity (rabbit; doses of up to 10 mg/kg i.d.)	IC50 [1] [nM]	SELECTIVITY RATIO [2]	IC50 (cGMP-inhibited cAMP PDE) [nM]	signs of adverse acute toxicity (rabbit; doses of up to 1 mg/kg i.d.)
CCOc1ccc(S(=O)(=O)N2CCN(CCO)CC2)cc1-c1nc2cccc(C)c2c(=O)[nH]1 [Example 4, 2-{2-Ethoxy-5-[4-(2-hydroxyethyl)-1-piperazinylsulphonyl]phenyl}-5-methylquinazolin-4(3H)-one]	no signs of adverse acute toxicity being observed				
CCOc1ccc(S(=O)(=O)N2CCN(CCO)CC2)cc1-c1nc2c(C)cccc2c(=O)[nH]1 [Example 5, 2-{2-Ethoxy-5-[4-(2-hydroxyethyl)-1-piperazinylsulphonyl]phenyl}-8-methylquinazolin-4(3H)-one]	no signs of adverse acute toxicity being observed	37	> 2,702	> 100000	
CCCOc1ccc(S(=O)(=O)N2CCN(CCO)CC2)cc1-c1nc2c(C)cccc2c(=O)[nH]1 [Example 6]		6.5	> 15,384	> 100000	
CCCOc1ccc(C=CC(=O)N2CCN(C)CC2)cc1-c1nc2c(C)cccc2c(=O)[nH]1 [Example 9]		37	> 2,702	> 100000	no signs of adverse acute toxicity being observed
CCCOc1ccc(C=CC(=O)OC(C)(C)C)cc1-c1nc2c(C)cccc2c(=O)[nH]1 [Example 10, t-Butyl 3-(8-methylquinazolin-4(3H)-on-2-yl)-4-n-propoxycinnamate]		54	> 1,851	> 100000	
CCOc1ccc(C(O)CN2CCOCC2)cc1-c1nc2c(C)cccc2c(=O)[nH]1 (centres unmarked) [Example 17, 2-[2-Ethoxy-5-(1-hydroxy-2-morpholinoethyl)phenyl]-8-methylquinazolin-4(3H)-one]		53	> 1,886	> 100000	
CCOc1ccc(S(=O)(=O)N2CCN(CCO)CC2)cc1-c1nc2c(C(N)=O)cccc2c(=O)[nH]1 [Example 19, 8-Carbamoy-2-{2-ethoxy-5-[4-(2-hydroxyethyl)-1-piperazinylsulphonyl]phenyl}quinazolin-4(3H)-one]		34	1,970	67000	
CCCOc1ccccc1-c1nc2c(C(=O)NCC)cccc2c(=O)[nH]1 [Example 21, 8-Ethylcarbamoyl-2-(2-n-propoxyphenyl)quinazolin-4(3H)-one]		14	> 7,142	> 100000	
CCCOc1ccc(C(C)=O)cc1-c1nc2c(C)cccc2c(=O)[nH]1 [Example 22, 2-(5-Acetyl-2-n-propoxyphenyl)-8-methylquinazolin-4(3H)-one]		49		> 100000	
